Measurements: article PMC11206691, “N-Hydroxypiridinedione: A Privileged Heterocycle for Targeting the HBV RNase H” (Molecules, 2024)
Where two headings read alike, the source gives them in different places.

Assays:
[1] = Parallel artificial membrane permeability assay; format: in vitro ADME; design: key to Papp Interpretation: High rate of apparent passive permeability (>1 × 10^−6 cm/s); Low rate of apparent passive permeability (<1 × 10^−6 cm/s); INS: Compound was insoluble in 100% DMSO; settings: for Papp Interpretation: pH 7.4; for Papp: pH 7.4, 200 μM; for Papp / Papp at 2 h, 200 µM: 2 h, room temperature; for Papp interpretation (high/low permeability category) at 2 h, 200 µM / Papp at 2 h, 200 µM: PAMPA; for Papp interpretation (high/low permeability category) at 2 h, 200 µM: pH 7.4, pH 7.4; for Papp at 2 h, 200 µM: pH 7.4, pH 7.4, 200 μM
Method: Apparent passive permeability (Papp) was assessed at pH 7.4 using a 96-well donor/acceptor cassette (Sigma Aldrich, Burlington, MA, USA), which mimics the apical and basolateral sides of the small intestine epithelium, as we have described previously. Briefly, an artificial membrane composed of 1% w/v lethicin/dodecane was added to the poly (vinylidene fluoride) (PVDF) membrane filter. Once dry, compounds (200 μM) were diluted in buffer at pH 7.4 and added to the donor side of the membrane, and the same pH buffer was added to the acceptor side. The cassette was assembled and incubated at room temperature with shaking at 250 rpm for 2 h, after which 100 μL of the acceptor well was retrieved and the experimental compound absorbance was read on a plate reader between 200 and 600 nm. Compound Papps (cm/s) values were determined by normalizing to the compound absorbance at equilibrium, incubation time, and membrane porosity Two or more replicate assays were conducted on different days.

[2] = Solubility limit assay (turbidity, DMEM-F12 + 10% FBS); format: physicochemical; settings: pH 7.4, DMEM-F12 with 10% FBS, 1% DMSO, upper limit 200 µM
Method: Compound solubility limits were tested in DMEM-F12 without phenol red (Gibco, Grand Island, NY, USA) supplemented with 10% FBS (pH 7.2–7.4) to mimic cell culture experiments, as we have performed previously. Compounds were serially diluted in buffer at pH 7.4 in 384-well, optically clear plates (upper limit 200 µM, DMSO 1%) and read on a plate reader at 620 nm. Compound concentration (µM) was plotted against optical density (OD) and a solubility limit was determined by identifying an inflection point where there was a significant increase in optical density due to increasing turbidity; the concentration of the compound at the inflection point was defined as the solubility limit. Two or more replicate assays were performed on different days for each compound.

HBV replication = experiment: qPCR HBV replication inhibition assay in HepDES19 cells; format: cell-based, Hepatitis B virus (HBV) genotype D; settings: 72 h, (+) DNA qPCR
Method: (§1) HepDES19 cells were incubated on collagen-coated plates at 37 °C with 5% CO2 and saturating humidity in Dulbecco’s modified Eagle’s medium (DMEM/F12) (Cytiva Life Sciences, Marlborough, MA, USA) supplemented with 10% fetal bovine serum (FBS), penicillin (100 IU/mL), and streptomycin (100 µg/mL). HepDES19 cells are HepG2 cells that carry a stably transfected HBV genotype D genome under the control of a tetracycline repressible promoter. Cells were maintained in the presence of 1 µg/mL tetracycline to repress the expression of the stably integrated HBV genome, and HBV replication was induced by the withdrawal of tetracycline from the culture medium.
HBV replication inhibition was measured in HepDES19 cells induced to replicate HBV by the removal of tetracycline using a strand-preferential quantitative PCR assay as previously described. Cells were seeded at 4 × 10^4 cells/well in 96-well plates for 48 h. Serially diluted compound was then added to cells at a final concentration of 1% DMSO for 72 h, after which the cells were lysed and qPCR was performed as described in Li et al.. EC50 values were calculated from the (+) DNA data with GraphPad Prism using the four-parameter log (inhibitor) versus response algorithm with the bottom value set to zero. Three or more replicate assays were performed on different days.

MTS cytotoxicity assay = format: cell-based; settings: human, HepDES19 cells
Method: as §1
Cell viability was assessed using the CellTiter 96^TM Aqueous Non-Radioactive Cell Proliferation assay (MTS) (Promega, Madison, WI, USA) as described previously. HepDES19 cells were seeded at 1 × 10^4 cells per well in 96-well, and compound was added after 48 h. Cells incubated with serially diluted compound (1% DMSO) for 72 h. Bac absorbance values were subtracted, and data were converted to percent cell viability. The cytotoxic concentration 50% (CC50) values were calculated with GraphPad Prism by using the four-parameter variable response log (inhibitor) versus response algorithm with the bottom value set to zero. Three or more replicate assays were performed on different days.

[3] = Hepatitis B virus, read-out: EC50
[4] = DMEM-F12 without phenol red with 10% FBS, plasma or biological fluid, kinetic from dmso stock

2,6-Diamino-4-(3-methoxyphenoxy)-1,6-dihydropyrimidine 1-oxide [Compound 55]
Papp Interpretation [1]: H (High rate of apparent passive permeability (>1 × 10^−6 cm/s))
Papp [1]: 6.17 ×10⁻⁶ cm/s
solubility [2]: > 200 µM

CSc1ccc(CON=C(C)c2c(C)cc(=O)n(O)c2O)cc1 [Compound 33, 1,6-Dihydroxy-4-methyl-5-(1-(((4(methylthio)benzyl)oxy)imino)ethyl)pyridin-2(1H)-one]
Papp interpretation (high/low permeability category) at 2 h, 200 µM [1]: > 1 ×10⁻⁶ cm/s
Papp at 2 h, 200 µM [1]: 4.35 ×10⁻⁶ cm/s
EC50 (HBV replication; [3]): 1.4 ± 0.7 µM
CC50 at 72 h (MTS cytotoxicity assay): 100 µM
solubility [2, 4]: > 200 µM
melting point: 110 to 115 °C (dec.)

COC(=O)c1ccc(C(C)ON=C(C)c2c(C)cc(=O)n(O)c2O)cc1 (centres unmarked) [Compound 34, Methyl-4-(1-(((1-(1,2-dihydroxy-4-methyl-6-oxo-1,6-dihydropyridin-3-yl)ethylidene)amino)oxy)ethyl)benzoate]
Papp interpretation (high/low permeability category) at 2 h, 200 µM [1]: > 1 ×10⁻⁶ cm/s
Papp at 2 h, 200 µM [1]: 2.5 ×10⁻⁶ cm/s
EC50 (HBV replication; [3]): 6.3 ± 5.5 µM
CC50 at 72 h (MTS cytotoxicity assay): 96 ± 5.7 µM
solubility [2, 4]: 50 µM
melting point: 130 °C (dec.)

COc1cccc(CON=C(C)c2c(C)cc(=O)n(O)c2O)c1 [Compound 35, 1,6-Dihydroxy-5-(1-(((3-methoxybenzyl)oxy)imino)ethyl)-4-methylpyridin-2(1H)-one]
Papp interpretation (high/low permeability category) at 2 h, 200 µM [1]: > 1 ×10⁻⁶ cm/s
Papp at 2 h, 200 µM [1]: 6.19 ×10⁻⁶ cm/s
EC50 (HBV replication; [3]): 1.9 ± 1.2 µM
CC50 at 72 h (MTS cytotoxicity assay): 90 ± 14.1 µM
solubility [2, 4]: 117 µM
melting point: 120 to 122 °C (dec.)

COC(=O)c1cc(Cl)c(CON=C(C)c2c(C)cc(=O)n(O)c2O)c(Cl)c1 [Compound 36, Methyl 3,5-dichloro-4-((((1-(1,2-dihydroxy-4-methyl-6-oxo-1,6-dihydropyridin-3-yl)ethylidene)amino)oxy)methyl)benzoate]
Papp interpretation (high/low permeability category) at 2 h, 200 µM [1]: > 1 ×10⁻⁶ cm/s
Papp at 2 h, 200 µM [1]: 4.35 ×10⁻⁶ cm/s
EC50 (HBV replication; [3]): 3.1 ± 0.4 µM
CC50 at 72 h (MTS cytotoxicity assay): 100 µM
solubility [2, 4]: 163 µM
melting point: 117 to 119 °C (dec.)

CC(=NOC(CNC(=O)c1ccco1)c1cc(F)cc(F)c1)c1c(C)cc(=O)n(O)c1O (centres unmarked) [Compound 37, N-(2-(3,5-Difluorophenyl)-2-(((1-(1,2-dihydroxy-4-methyl-6-oxo-1,6-dihydropyridin-3-yl)ethylidene)amino)oxy)ethyl)furan-2-carboxamide]
Papp interpretation (high/low permeability category) at 2 h, 200 µM [1]: > 1 ×10⁻⁶ cm/s
Papp at 2 h, 200 µM [1]: 4.96 ×10⁻⁶ cm/s
EC50 (HBV replication; [3]): 4.7 ± 3 µM
CC50 at 72 h (MTS cytotoxicity assay): 100 µM
solubility [2, 4]: 175 µM
melting point: 118 to 120 °C (dec.)

CC(=NOC(c1cc(F)cc(F)c1)c1ccccn1)c1c(C)cc(=O)n(O)c1O (centres unmarked) [Compound 38, 5-(1-(((3,5-Difluorophenyl)(pyridin-2-yl)methoxy)imino)ethyl)-1,6-dihydroxy-4-methylpyridin-2(1H)-one]
Papp interpretation (high/low permeability category) at 2 h, 200 µM [1]: > 1 ×10⁻⁶ cm/s
Papp at 2 h, 200 µM [1]: 2.61 ×10⁻⁶ cm/s
EC50 (HBV replication; [3]): 2.3 ± 0.2 µM
CC50 at 72 h (MTS cytotoxicity assay): 47.1 ± 21.7 µM
solubility [2, 4]: 167 µM
melting point: 102 to 104 °C (dec.)

CC(=NOCc1ccc(O)cc1)c1c(C)cc(=O)n(O)c1O [Compound 39, 1,6-Dihydroxy-5-(1-(((4-hydroxybenzyl)oxy)imino)ethyl)-4-methylpyridin-2(1H)-one]
Papp interpretation (high/low permeability category) at 2 h, 200 µM [1]: > 1 ×10⁻⁶ cm/s
Papp at 2 h, 200 µM [1]: 5.21 ×10⁻⁶ cm/s
EC50 (HBV replication; [3]): 5.2 ± 0.9 µM
CC50 at 72 h (MTS cytotoxicity assay): 91.1 ± 14.3 µM
solubility [2, 4]: > 200 µM
melting point: 98 to 100 °C (dec.)

C#CCCCON=C(C)c1c(C)cc(=O)n(O)c1O [Compound 40, 1,6-Dihydroxy-4-methyl-5-(1-((pent-4-yn-1-yloxy)imino)ethyl)pyridin-2(1H)-one]
Papp interpretation (high/low permeability category) at 2 h, 200 µM [1]: > 1 ×10⁻⁶ cm/s
Papp at 2 h, 200 µM [1]: 3.36 ×10⁻⁶ cm/s
EC50 (HBV replication; [3]): 2.5 ± 0.6 µM
CC50 at 72 h (MTS cytotoxicity assay): 53.6 ± 31.4 µM
solubility [2, 4]: > 200 µM
melting point: 93 to 95 °C (dec.)

C#CCCON=C(C)c1c(C)cc(=O)n(O)c1O [Compound 41, 5-(1-((But-3-yn-1-yloxy)imino)ethyl)-1,6-dihydroxy-4-methylpyridin-2(1H)-one]
Papp interpretation (high/low permeability category) at 2 h, 200 µM [1]: > 1 ×10⁻⁶ cm/s
Papp at 2 h, 200 µM [1]: 2.24 ×10⁻⁶ cm/s
EC50 (HBV replication; [3]): 1.2 ± 0.2 µM
CC50 at 72 h (MTS cytotoxicity assay): 57.5 ± 32.4 µM
solubility [2, 4]: > 200 µM
melting point: 86 to 89 °C (dec.)

C#CCON=C(C)c1c(C)cc(=O)n(O)c1O [Compound 42, 1,6-Dihydroxy-4-methyl-5-(1-((prop-2-yn-1-yloxy)imino)ethyl)pyridin-2(1H)-one]
Papp interpretation (high/low permeability category) at 2 h, 200 µM [1]: > 1 ×10⁻⁶ cm/s
Papp at 2 h, 200 µM [1]: 3.74 ×10⁻⁶ cm/s
EC50 (HBV replication; [3]): 5.4 ± 2.2 µM
CC50 at 72 h (MTS cytotoxicity assay): 81.7 ± 18.6 µM
solubility [2, 4]: 167 µM
melting point: 78 to 80 °C (dec.)

COC(=O)c1ccc(CON=C(C)c2c(C)cc(=O)n(O)c2O)c(C#N)c1 [Compound 44, 2′-Cyano-4′-((((1′-(1,2-dihydroxy-4-methyl-6-oxo-1,6-dihydropyridin-5-yl)ethylidene)amino)oxy)methyl)methyl benzoate]
Papp interpretation (high/low permeability category) at 2 h, 200 µM [1]: > 1 ×10⁻⁶ cm/s
Papp at 2 h, 200 µM [1]: 5.42 ×10⁻⁶ cm/s
EC50 (HBV replication; [3]): 7.7 ± 1.4 µM
CC50 at 72 h (MTS cytotoxicity assay): 91.9 ± 11.2 µM
solubility [2, 4]: > 200 µM
melting point: 115 °C

COC(=O)c1ccc(CON=C(C)c2c(C)cc(=O)n(O)c2O)c(F)c1 [Compound 45, Methyl 4-((((1-(1,2-dihydroxy-4-methyl-6-oxo-1,6-dihydropyridin-3-yl)ethylidene)amino)oxy)methyl)-3-fluorobenzoate]
Papp interpretation (high/low permeability category) at 2 h, 200 µM [1]: > 1 ×10⁻⁶ cm/s
Papp at 2 h, 200 µM [1]: 3.54 ×10⁻⁶ cm/s
EC50 (HBV replication; [3]): 3.2 ± 0.4 µM
CC50 at 72 h (MTS cytotoxicity assay): 90.2 ± 13.8 µM
solubility [2, 4]: > 200 µM
melting point: 130 °C (dec.)

Nc1cc(Oc2cc(Cl)c(Cl)cc2Cl)nc(N)[n+]1[O-] [Compound 56, 2,6-Diamino-4-(2′,4′,5′-trichloro)-1,6-dihydropyrimidine 1-oxide]
Papp interpretation (high/low permeability category) at 2 h, 200 µM [1]: > 1 ×10⁻⁶ cm/s
Papp at 2 h, 200 µM [1]: 3.85 ×10⁻⁶ cm/s
EC50 (HBV replication; [3]): > 100 µM
solubility [2, 4]: 167 µM
melting point: 135 °C

Nc1cc(Oc2ccc(Cl)cc2Cl)nc(N)[n+]1[O-] [Compound 57, 2,6-Diamino-4-(2′,4′-dichloro)-1,6-dihydropyrimidine 1-oxide]
Papp interpretation (high/low permeability category) at 2 h, 200 µM [1]: > 1 ×10⁻⁶ cm/s
Papp at 2 h, 200 µM [1]: 2.99 ×10⁻⁶ cm/s
EC50 (HBV replication; [3]): > 100 µM
solubility [2, 4]: 100 µM
melting point: 160 °C

COc1ccc(COc2cc(N)[n+]([O-])c(N)n2)cc1 [Compound 58, 2,6-Diamino-4-((4-methoxybenzyl)oxy)pyrimidine 1-oxide]
Papp interpretation (high/low permeability category) at 2 h, 200 µM [1]: > 1 ×10⁻⁶ cm/s
Papp at 2 h, 200 µM [1]: 2.56 ×10⁻⁶ cm/s
EC50 (HBV replication; [3]): > 100 µM
solubility [2, 4]: > 200 µM
melting point: > 250 °C

COC(=O)c1ccc(CO/N=C(\C)C2C(=O)NC(=O)NC2=O)cc1 [Compound 59, Methyl 4′-((((1-(2,4,6-Trioxohexahydropyrimidin-5-yl)ethylidene)amino)oxy)methyl)benzoate]
Papp Interpretation [1]: INS
Papp [1]: INS
EC50 (HBV replication): lacked any inhibitory activity
Solubility Limit [2]: INS
melting point: > 250 °C
